Assay results: US20150139971A1, “METHOD FOR PREPARING REGULATORY DENDRITIC CELLS” (NIPPON KAYAKU KABUSHIKI KAISHA, priority 2010, published 2015)

Tests used:
[1] = test system: dendritic cells derived from C57BL/6 mouse bone marrow cells; test: Expression of costimulatory molecules CD40, CD80, CD86 by flow cytometry (MFI) on matured dendritic cells; assay type: cell-based
Procedure: (§1) The C57BL/6 mouse bone marrow cells were cultured for 7 days in 10% FCS-RPMI1640 medium containing 20 ng/mL GM-CSF (Peprotech, origin: rabbit) and 20 ng/mL IL-4 (Peprotech, origin: rabbit) so as to cause the cells to differentiate into dendritic cells. Subsequently, 20 ng/mL TNF-α (Peprotech, origin: rabbit) was added for maturation. Treatment with NK026680 was performed by adding 50 ng/mL NK026680 on days 2 and 4 of culture and adding 250 ng/mL NK026680 on day 6 of culture.
The BALB/c mouse-derived spleen cell extract was added to dendritic cells derived from bone marrow cells which were collected from the C57BL/6 mouse, thereby causing cells to present a BALB/c antigen. The effect of incorporating the BALB/c antigen was confirmed by measuring the expression of 1-Ad (antibody: BD pharmingen), which is a BALB/c major histocompatibility complex (MHC), by flow cytometry. At this time, cells were cultured in the presence or the absence of NK026680, and the cells were allowed to mature with TNF-α (Peprotech, origin: rabbit). Maturation of dendritic cells was confirmed by flow cytometric analysis of the expression of the mature dendritic cell marker. Fluorescence-labeled antibodies against CD40, CD80 and CD86 costimulatory molecules were reacted in NK026680-treated dendritic cells (NK-DC) of the present invention and untreated dendritic cells (CTR-DC). Mean fluorescence intensity (MFI) was measured by flow cytometry, so that the expression levels of CD40, CD80, and CD86 were compared.

[2] = test system: autoimmune angiitis model; conditions: Non-patent Document 6; cited from earlier work
[3] = test system: graft-versus-host disease model; conditions: Non-patent Document 5; cited from earlier work
[4] = test system: dendritic cells; conditions: dendritic cells cultured in the presence of the compound; cited from earlier work
[5] = test system: dendritic cells derived from C57BL/6 mouse bone marrow cells; test: IL-6 and IL-12p40 in culture supernatant of dendritic cells by ELISA; assay type: cell-based
Procedure: as §1
In this Example 2, in a manner similar to that in Example 1, the dendritic cells of the present invention treated with NK026680 and untreated dendritic cells, which had been obtained by differentiation and maturation of C57BL/6 mouse bone marrow cells, were obtained. After stimulation with TNF, cells were cultured for 24 hours. The thus obtained culture supernatant was collected, and then the concentrations of immune-response-stimulating cytokines, IL-6 and IL-12p40, were measured by ELISA (BD bioscience) (n=3).

COc1ccc(-c2ccnc3nc(NC(=O)N[C@@H](C)CCCC(C)(C)O)nn23)cc1 [NK026680, (S)-(+)-1-(5-hydroxy-1,5-dimethylhexyl)-3-[7-(4-methoxyphenyl)-[1,2,4]triazolo[1,5-a]pyrimidin-2-yl]urea]
CD40 (MFI) ([1]; NK026680 50 ng/mL on days 2 and 4, 250 ng/mL on day 6, BALB/c antigen, matured with TNF-α, untreated cells 244): 159 MFI | CD86 (MFI) ([1]; NK026680 50 ng/mL on days 2 and 4, 250 ng/mL on day 6, BALB/c antigen, matured with TNF-α, untreated cells 356): 217 MFI | CD80 (MFI) ([1]; NK026680 50 ng/mL on days 2 and 4, 250 ng/mL on day 6, BALB/c antigen, matured with TNF-α, untreated cells 659): 320 MFI | expression levels of CD40, CD80 and CD86 compared with untreated dendritic cells (CTR-DC) ([1]; in words): lower | effects against an autoimmune angiitis model [2]: exhibited effects | effects against a graft-versus-host disease model [3]: exhibited effects | expression level of a costimulatory molecule [4]: decreased | IL-6 ([5]; culture supernatant 24 hours after TNF stimulation, n=3, untreated cells 1235 ± 272): 219 ± 94 pg/mL | IL-12p40 ([5]; culture supernatant 24 hours after TNF stimulation, n=3, untreated cells 1555 ± 650): 347 ± 100 pg/mL | concentrations of IL-6 and IL-12p40 in culture supernatant compared with untreated dendritic cells ([5]; in words): lower
